Results: PubChem BioAssay AID1963839 (Molecular Pharmacology Branch, DTP, NCI, 2024)

System: 817829-284-R-J1-PDC complex spheroid viability
Assay: Anticancer human tumor 817829-284-R-J1-PDC patient-derived colon adenocarcinoma cell line growth inhibition [POLQ]
Conditions: for IC50: curve of first compound; for viability, T/C: stronger effect = lower value
How it was run: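 Three-cell-type spheroids modelling solid tumor plus stroma served as the readout system; POL inhibitors were tested individually and in combination, concentration ranges set by clinical Cmax where known.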

[1] = second compound 0.0316 µM, first compound 0.0316 µM
[2] = second compound 0.0316 µM, first compound 0.1 µM
[3] = second compound 0.0316 µM, first compound 0.316 µM
[4] = second compound 0.0316 µM, first compound 1 µM
[5] = second compound 0.0316 µM, first compound 3.16 µM
[6] = second compound 0.0316 µM, first compound 10 µM
[7] = second compound 0.1 µM, first compound 0.0316 µM
[8] = second compound 0.1 µM, first compound 0.1 µM
[9] = second compound 0.1 µM, first compound 0.316 µM
[10] = second compound 0.1 µM, first compound 1 µM
[11] = second compound 0.1 µM, first compound 3.16 µM
[12] = second compound 0.1 µM, first compound 10 µM
[13] = second compound 0.316 µM, first compound 0.0316 µM
[14] = second compound 0.316 µM, first compound 0.1 µM
[15] = second compound 0.316 µM, first compound 0.316 µM
[16] = second compound 0.316 µM, first compound 1 µM
[17] = second compound 0.316 µM, first compound 3.16 µM
[18] = second compound 0.316 µM, first compound 10 µM
[19] = second compound 1 µM, first compound 0.0316 µM
[20] = second compound 1 µM, first compound 0.1 µM
[21] = second compound 1 µM, first compound 0.316 µM
[22] = second compound 1 µM, first compound 1 µM
[23] = second compound 1 µM, first compound 3.16 µM
[24] = second compound 1 µM, first compound 10 µM
[25] = second compound 3.16 µM, first compound 0.0316 µM
[26] = second compound 3.16 µM, first compound 0.1 µM
[27] = second compound 3.16 µM, first compound 0.316 µM
[28] = second compound 3.16 µM, first compound 1 µM
[29] = second compound 3.16 µM, first compound 3.16 µM
[30] = second compound 3.16 µM, first compound 10 µM
[31] = second compound 10 µM, first compound 0.0316 µM
[32] = second compound 10 µM, first compound 0.1 µM
[33] = second compound 10 µM, first compound 0.316 µM
[34] = second compound 10 µM, first compound 1 µM
[35] = second compound 10 µM, first compound 3.16 µM
[36] = second compound 10 µM, first compound 10 µM
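Also: spheroids exposed to compounds for 7 days.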
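For viability, T/C in this document: 100% = DMSO vehicle-treated spheroids.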

COc1cccc2c1C(=O)c1c(O)c3c(c(O)c1C2=O)CC(O)(C(=O)CO)CC3OC1CC(N)C(O)C(C)O1 (stereo not drawn) + Nc1ccc(C#CCN(C(=O)Cc2ncc(C(F)(F)F)cc2C(F)(F)F)c2ccc(F)cc2)nn1 was tested, and the IC50 (second compound 0.0316 µM) was < 0.0316 µM, the IC50 (second compound 0.1 µM) was < 0.0316 µM and the IC50 (second compound 0.316 µM) was < 0.0316 µM. For the same molecule, the IC50 (second compound 1 µM) was < 0.0316 µM, the IC50 (second compound 3.16 µM) was < 0.0316 µM and the IC50 (second compound 10 µM) was < 0.0316 µM. The viability, T/C [1] was 21.8%, the viability, T/C [2] was 21.2% and the viability, T/C [3] was 5.37%. For the same molecule, the viability, T/C [4] was 0.34%, the viability, T/C [5] was 0.13% and the viability, T/C [6] was 0.41%. It also gave a viability, T/C [7] of 18.1%, a viability, T/C [8] of 21.5% and a viability, T/C [9] of 6.2%. It also gave a viability, T/C [10] of 0.54%, a viability, T/C [11] of 0.2% and a viability, T/C [12] of 0.48%. The viability, T/C [13] was 21.1%, the viability, T/C [14] was 17.4% and the viability, T/C [15] was 6.38%. It also gave a viability, T/C [16] of 0.38%, a viability, T/C [17] of 0.13% and a viability, T/C [18] of 0.65%. For the same molecule, the viability, T/C [19] was 21.6%, the viability, T/C [20] was 22.7% and the viability, T/C [21] was 5.1%. For the same molecule, the viability, T/C [22] was 0.6%, the viability, T/C [23] was 0.16% and the viability, T/C [24] was 0.62%. The viability, T/C [25] was 17.3%, the viability, T/C [26] was 15.6% and the viability, T/C [27] was 5.54%. It also gave a viability, T/C [28] of 0.25%, a viability, T/C [29] of 0.19% and a viability, T/C [30] of 0.51%. It also gave a viability, T/C [31] of 18.4%, a viability, T/C [32] of 21.1% and a viability, T/C [33] of 4.32%. The viability, T/C [34] was 0.29%, the viability, T/C [35] was 0.26% and the viability, T/C [36] was 0.52%.

For CC(C)n1c(=O)n(C)c2cnc3cc(F)c(-c4ccc(OCCCN5CCCCC5)nc4)cc3c21 + COC1C(OC(N)=O)C(O)C(Oc2ccc3c(O)c(NC(=O)c4ccc(O)c(CC=C(C)C)c4)c(=O)oc3c2C)OC1(C)C, the IC50 (second compound 0.0316 µM) was > 10 µM, the IC50 (second compound 0.1 µM) was 7.06 µM and the IC50 (second compound 0.316 µM) was > 10 µM. The IC50 (second compound 1 µM) was 4.94 µM, the IC50 (second compound 3.16 µM) was 4.97 µM and the IC50 (second compound 10 µM) was 5.05 µM. For the same molecule, the viability, T/C [1] was 88.5%, the viability, T/C [2] was 95.9% and the viability, T/C [3] was 61.4%. For the same molecule, the viability, T/C [4] was 93.1%, the viability, T/C [5] was 84.5% and the viability, T/C [6] was 52.6%. The viability, T/C [7] was 74.4%, the viability, T/C [8] was 82.5% and the viability, T/C [9] was 129%. For the same molecule, the viability, T/C [10] was 102%, the viability, T/C [11] was 72.7% and the viability, T/C [12] was 40.2%. The viability, T/C [13] was 78.5%, the viability, T/C [14] was 96.5% and the viability, T/C [15] was 86.3%. It also gave a viability, T/C [16] of 93%, a viability, T/C [17] of 71.4% and a viability, T/C [18] of 55.8%. For the same molecule, the viability, T/C [19] was 102%, the viability, T/C [20] was 102% and the viability, T/C [21] was 84%. For the same molecule, the viability, T/C [22] was 81.1%, the viability, T/C [23] was 62.5% and the viability, T/C [24] was 31.8%. For the same molecule, the viability, T/C [25] was 81.9%, the viability, T/C [26] was 87.8% and the viability, T/C [27] was 78.6%. The viability, T/C [28] was 85.8%, the viability, T/C [29] was 71.3% and the viability, T/C [30] was 16.9%. For the same molecule, the viability, T/C [31] was 80.5%, the viability, T/C [32] was 65.4% and the viability, T/C [33] was 62.1%. It also gave a viability, T/C [34] of 81.4%, a viability, T/C [35] of 74.4% and a viability, T/C [36] of 16.9%.

For C#Cc1c(F)ccc2cc(O)cc(-c3ncc4c(N5CC6CCC(C5)N6)nc(OCC56CCCN5CC(F)C6)nc4c3F)c12 (stereo not drawn) + COC1C(OC(N)=O)C(O)C(Oc2ccc3c(O)c(NC(=O)c4ccc(O)c(CC=C(C)C)c4)c(=O)oc3c2C)OC1(C)C, the IC50 (second compound 0.0316 µM) was > 10 µM, the IC50 (second compound 0.1 µM) was > 10 µM and the IC50 (second compound 0.316 µM) was > 10 µM. For the same molecule, the IC50 (second compound 1 µM) was 7.86 µM, the IC50 (second compound 3.16 µM) was > 10 µM and the IC50 (second compound 10 µM) was 8.11 µM. For the same molecule, the viability, T/C [1] was 88.1%, the viability, T/C [2] was 92.5% and the viability, T/C [3] was 135%. It also gave a viability, T/C [4] of 119%, a viability, T/C [5] of 102% and a viability, T/C [6] of 93.4%. For the same molecule, the viability, T/C [7] was 95.6%, the viability, T/C [8] was 107% and the viability, T/C [9] was 102%. The viability, T/C [10] was 114%, the viability, T/C [11] was 89.2% and the viability, T/C [12] was 106%. The viability, T/C [13] was 88.1%, the viability, T/C [14] was 105% and the viability, T/C [15] was 87.5%. For the same molecule, the viability, T/C [16] was 116%, the viability, T/C [17] was 127% and the viability, T/C [18] was 66.5%. The viability, T/C [19] was 110%, the viability, T/C [20] was 140% and the viability, T/C [21] was 109%. It also gave a viability, T/C [22] of 126%, a viability, T/C [23] of 101% and a viability, T/C [24] of 36.5%. The viability, T/C [25] was 117%, the viability, T/C [26] was 121% and the viability, T/C [27] was 99.1%. The viability, T/C [28] was 113%, the viability, T/C [29] was 113% and the viability, T/C [30] was 56.7%. It also gave a viability, T/C [31] of 87.3%, a viability, T/C [32] of 113% and a viability, T/C [33] of 144%. The viability, T/C [34] was 101%, the viability, T/C [35] was 132% and the viability, T/C [36] was 35.4%.

CC1COCCN1c1cc(C2(S(C)(=N)=O)CC2)nc(-c2ccnc3[nH]ccc23)n1 (stereo not drawn) + Cc1cccc(N(C)C(=O)C2C(O)CCN2c2nc(C)cc(C(F)(F)F)c2C#N)c1 was tested, and the IC50 (second compound 0.0316 µM) was 0.377 µM, the IC50 (second compound 0.1 µM) was 0.407 µM and the IC50 (second compound 0.316 µM) was 0.567 µM. It also gave an IC50 (second compound 1 µM) of 0.337 µM, an IC50 (second compound 3.16 µM) of 0.394 µM and an IC50 (second compound 10 µM) of 0.454 µM. For the same molecule, the viability, T/C [1] was 114%, the viability, T/C [2] was 82.1% and the viability, T/C [3] was 62%. It also gave a viability, T/C [4] of 20.7%, a viability, T/C [5] of 9.12% and a viability, T/C [6] of 5.39%. It also gave a viability, T/C [7] of 80.6%, a viability, T/C [8] of 91.1% and a viability, T/C [9] of 53.5%. For the same molecule, the viability, T/C [10] was 24.7%, the viability, T/C [11] was 7.03% and the viability, T/C [12] was 4.47%. For the same molecule, the viability, T/C [13] was 121%, the viability, T/C [14] was 102% and the viability, T/C [15] was 75.9%. It also gave a viability, T/C [16] of 25.7%, a viability, T/C [17] of 9.72% and a viability, T/C [18] of 5.65%. It also gave a viability, T/C [19] of 104%, a viability, T/C [20] of 118% and a viability, T/C [21] of 52%. The viability, T/C [22] was 30.7%, the viability, T/C [23] was 7.73% and the viability, T/C [24] was 5.65%. It also gave a viability, T/C [25] of 105%, a viability, T/C [26] of 86.3% and a viability, T/C [27] of 54.6%. The viability, T/C [28] was 28.7%, the viability, T/C [29] was 7.73% and the viability, T/C [30] was 4.73%. The viability, T/C [31] was 75.6%, the viability, T/C [32] was 92.2% and the viability, T/C [33] was 56.6%. The viability, T/C [34] was 27.7%, the viability, T/C [35] was 8.08% and the viability, T/C [36] was 5.23%.
